Test results as given in patent US9062066B2, “Anti-inflammatory compound having inhibitory activity against multiple tyrosine kinases and pharmaceutical composition containing same” (KOREA INSTITUTE OF SCIENCE AND TECHNOLOGY, priority 2010, dated 2015).
Where two headings read alike, the source gives them in different places.

Tests used:
DDR1 tyrosine kinase = DDR1 tyrosine kinase (Homo sapiens (Human), UniProt Q08345); test: in vitro DDR1 tyrosine kinase inhibition (GST-fused kinase domain); format: biochemical; conditions: 1 uM compound; read-out: % inhibition against DDR1
Lyn tyrosine kinase = Lyn tyrosine kinase (Homo sapiens (Human), UniProt P07948); test: in vitro Lyn tyrosine kinase inhibition; format: biochemical; conditions: 1 uM compound; read-out: % inhibition against Lyn
[1] = test system: α-smooth muscle actin protein expression in skin fibroblast cells; test: inhibition of α-smooth muscle actin expression in fibroblast activated by type I collagen and TGF-β1 (western blotting); format: cell-based, Balb/C mouse; conditions: Mus musculus, 0.5 uM compound, 10 ng/ml TGF-β1, 48 hours, type I collagen, read-out: Inhibition (%) of α-smooth muscle actin increase
Method in brief: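 α-Smooth muscle actin protein was detected by western blotting with chemiluminescence on X-ray film. Levels were quantified by densitometry of the band.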

DDR2 tyrosine kinase = DDR2 tyrosine kinase (Homo sapiens (Human), UniProt Q16832); test: in vitro DDR2 tyrosine kinase inhibition (GST-fused kinase domain); format: biochemical; conditions: 1 uM compound; read-out: % inhibition against DDR2
[2] = test system: TNF-α synthesis in J744A.1 macrophages; test: inhibition of TNF-α synthesis in LPS-activated macrophages (ELISA); format: cell-based; conditions: Macrophage, read-out: Inhibition (%) of TNF-α synthesis
c-Src tyrosine kinase = c-Src tyrosine kinase (Homo sapiens (Human), UniProt P12931); test: in vitro c-Src tyrosine kinase inhibition (32P-ATP, poly(D4Y)n substrate); format: biochemical; conditions: 1 uM compound; read-out: % inhibition against c-Src
mouse skin fibroblast = test: inhibition of migration of activated fibroblast (scratch wound); format: cell-based; conditions: 0.5 uM compound, 10 ng/ml TGF-β1, 24 hours, read-out: Inhibition (%) of migration of activated fibroblast
Method in brief: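 Scratch wound was made on a fibroblast monolayer, then cells were kept in DMEM with 10 ng/ml TGF-β1 at 37° C for 24 hours. After formalin fixation and crystal violet staining, cells that had moved into the wound were counted at 100× in five random fields and averaged.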

[3] = test system: NO synthesis in J744A.1 macrophage; test: inhibition of nitric oxide (NO) synthesis in LPS-activated macrophages (Griess reagent); format: cell-based; conditions: read-out: Inhibition (%) of NO synthesis
[4] = test system: oxazolone-induced skin inflammation of Balb/C mouse ears; test: mouse skin inflammatory model induced by oxazolone (ear thickness); format: in vivo; conditions: 20 ul of 0.1% compound topical on ear, 36 hours after oxazolone
Method in brief: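 Oxazolone was used to induce skin inflammation in the ears of 8-week-old Balb/C mice. Ear thickness was measured by caliper before induction, again at 36 h to capture inflammatory swelling, and averaged per group (n=4).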

Fgr tyrosine kinase = Fgr tyrosine kinase (Homo sapiens (Human), UniProt P09769); test: in vitro Fgr tyrosine kinase inhibition; format: biochemical; conditions: 1 uM compound; read-out: % inhibition against Fgr
Hck tyrosine kinase = Hck tyrosine kinase (Homo sapiens (Human), UniProt P08631); test: in vitro Hck tyrosine kinase inhibition; format: biochemical; conditions: 1 uM compound; read-out: % inhibition against Hck
[5] = 10 μM compound, 100 ng/ml LPS, 6 hours

Chain of Lyn tyrosine kinase (P07948 whole entry): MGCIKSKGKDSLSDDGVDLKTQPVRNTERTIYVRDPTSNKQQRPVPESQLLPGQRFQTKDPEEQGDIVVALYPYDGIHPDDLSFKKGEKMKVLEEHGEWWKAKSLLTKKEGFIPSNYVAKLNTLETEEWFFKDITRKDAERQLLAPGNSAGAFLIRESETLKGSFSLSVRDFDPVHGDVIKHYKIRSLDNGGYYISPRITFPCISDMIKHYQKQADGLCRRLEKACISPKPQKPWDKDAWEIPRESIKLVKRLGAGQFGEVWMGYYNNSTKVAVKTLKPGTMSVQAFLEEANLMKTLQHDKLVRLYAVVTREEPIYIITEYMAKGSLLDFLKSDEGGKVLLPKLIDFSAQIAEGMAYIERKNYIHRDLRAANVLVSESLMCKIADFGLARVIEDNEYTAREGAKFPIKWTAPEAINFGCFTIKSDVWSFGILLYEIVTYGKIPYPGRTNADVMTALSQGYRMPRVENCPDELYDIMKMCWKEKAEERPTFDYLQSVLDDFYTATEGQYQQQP
Chain of DDR1 tyrosine kinase (Q08345 610-905): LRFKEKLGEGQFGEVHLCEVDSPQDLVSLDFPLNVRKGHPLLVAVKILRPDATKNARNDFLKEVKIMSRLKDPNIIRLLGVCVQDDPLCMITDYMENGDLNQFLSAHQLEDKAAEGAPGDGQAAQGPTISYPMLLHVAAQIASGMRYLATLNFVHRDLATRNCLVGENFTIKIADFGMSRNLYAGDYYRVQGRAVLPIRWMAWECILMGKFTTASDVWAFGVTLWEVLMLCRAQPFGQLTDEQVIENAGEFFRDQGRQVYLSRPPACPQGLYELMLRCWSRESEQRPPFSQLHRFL
Chain of Hck tyrosine kinase (P08631 whole entry): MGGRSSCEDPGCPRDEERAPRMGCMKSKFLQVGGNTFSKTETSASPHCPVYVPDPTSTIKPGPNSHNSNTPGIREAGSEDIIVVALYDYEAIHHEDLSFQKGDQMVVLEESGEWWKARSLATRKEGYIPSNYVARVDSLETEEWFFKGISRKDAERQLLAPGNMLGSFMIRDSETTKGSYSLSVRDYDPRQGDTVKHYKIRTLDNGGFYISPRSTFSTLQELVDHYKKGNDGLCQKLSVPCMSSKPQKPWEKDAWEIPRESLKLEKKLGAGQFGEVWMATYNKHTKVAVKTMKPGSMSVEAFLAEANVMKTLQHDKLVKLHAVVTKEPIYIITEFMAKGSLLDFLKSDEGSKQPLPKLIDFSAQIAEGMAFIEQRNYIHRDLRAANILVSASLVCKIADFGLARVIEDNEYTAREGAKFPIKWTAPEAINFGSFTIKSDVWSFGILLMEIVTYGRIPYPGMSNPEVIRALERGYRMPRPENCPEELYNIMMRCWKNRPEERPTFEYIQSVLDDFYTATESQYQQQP
Chain of DDR2 tyrosine kinase (Q16832 563-849): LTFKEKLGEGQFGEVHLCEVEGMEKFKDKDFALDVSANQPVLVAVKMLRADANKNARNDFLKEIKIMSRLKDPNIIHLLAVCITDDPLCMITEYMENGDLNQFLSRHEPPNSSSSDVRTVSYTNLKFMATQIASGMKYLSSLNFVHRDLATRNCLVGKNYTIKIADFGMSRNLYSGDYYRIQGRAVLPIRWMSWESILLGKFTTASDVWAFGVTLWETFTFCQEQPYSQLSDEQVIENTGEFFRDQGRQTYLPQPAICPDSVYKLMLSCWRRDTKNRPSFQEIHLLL
Chain of c-Src tyrosine kinase (P12931 whole entry, looked up): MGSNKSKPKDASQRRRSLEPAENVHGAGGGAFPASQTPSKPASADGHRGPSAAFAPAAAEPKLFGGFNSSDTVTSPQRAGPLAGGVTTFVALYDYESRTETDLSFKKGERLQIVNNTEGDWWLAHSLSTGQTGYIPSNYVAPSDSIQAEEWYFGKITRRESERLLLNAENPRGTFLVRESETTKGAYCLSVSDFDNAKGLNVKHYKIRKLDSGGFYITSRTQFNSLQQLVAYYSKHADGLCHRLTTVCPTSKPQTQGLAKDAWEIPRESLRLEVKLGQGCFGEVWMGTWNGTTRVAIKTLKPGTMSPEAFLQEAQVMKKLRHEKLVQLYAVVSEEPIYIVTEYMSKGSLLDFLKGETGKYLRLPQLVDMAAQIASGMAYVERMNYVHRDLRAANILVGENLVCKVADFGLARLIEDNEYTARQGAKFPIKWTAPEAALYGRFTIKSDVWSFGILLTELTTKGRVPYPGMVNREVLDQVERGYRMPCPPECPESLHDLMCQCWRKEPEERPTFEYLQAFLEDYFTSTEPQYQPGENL
Chain of Fgr tyrosine kinase (P09769 whole entry): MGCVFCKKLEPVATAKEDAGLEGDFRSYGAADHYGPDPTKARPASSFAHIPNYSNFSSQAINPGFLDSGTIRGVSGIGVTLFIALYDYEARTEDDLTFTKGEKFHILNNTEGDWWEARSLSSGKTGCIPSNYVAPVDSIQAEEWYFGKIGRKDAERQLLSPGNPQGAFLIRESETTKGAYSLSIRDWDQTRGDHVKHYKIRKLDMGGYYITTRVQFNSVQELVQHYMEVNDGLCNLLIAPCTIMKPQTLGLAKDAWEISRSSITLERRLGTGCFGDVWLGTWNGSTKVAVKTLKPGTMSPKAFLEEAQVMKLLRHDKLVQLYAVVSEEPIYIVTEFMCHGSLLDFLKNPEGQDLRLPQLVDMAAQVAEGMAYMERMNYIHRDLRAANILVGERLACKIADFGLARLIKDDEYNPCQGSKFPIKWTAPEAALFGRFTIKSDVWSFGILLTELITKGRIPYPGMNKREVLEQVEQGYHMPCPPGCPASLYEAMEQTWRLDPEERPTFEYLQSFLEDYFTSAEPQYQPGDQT

Row | Compound | inhibition at 1 µM (DDR1 tyrosine kinase) | inhibition at 1 µM (Lyn tyrosine kinase) | inhibition at 0.5 µM [1] | inhibition at 1 µM (DDR2 tyrosine kinase) | inhibition at 10 µM ([2]; 6 h) | inhibition at 1 µM (c-Src tyrosine kinase) | inhibition at 0.5 µM (mouse skin fibroblast) | inhibition at 10 µM ([3]; 24 h) | Inhibition (%) of increase of ear thickness [4] | inhibition at 1 µM (Fgr tyrosine kinase) | inhibition at 1 µM (Hck tyrosine kinase) | inhibition at 10 µM [2, 5] | inhibition at 10 µM ([3]; 10 μM compound, LPS, 24 hours)
1 | CCNCc1cccc(-c2cc3nccc(Nc4cccc(O)c4)c3s2)c1 [LCB 03-0112, 3-(2-(3-((ethylamino)methyl)phenyl)thieno[3,2-b]pyridin-7-ylamino)phenol] | > 80% | > 80% | 71% | > 80% | 46% | > 80% | 38% | 81% | 68% | > 80% | > 80% | – | –
2 | Cl.Oc1cccc(Nc2ncnc3cc(-c4cccc(CCN5CCCC5)c4)sc23)c1 [LCB 03-0076, 3-(6-(3-(2-(pyrrolidin-1-yl)ethyl)phenyl)thieno[3,2-d]pyrimidin-4-ylamino)phenol] | > 80% | > 80% | 57% | > 80% | – | > 80% | 45% | – | 54% | > 80% | > 80% | 90% | 91%
3 | Oc1cccc(Nc2ncnc3cc(-c4cccc(CCN5CCNCC5)c4)sc23)c1 [LCB 03-0079, 3-(6-(3-(2-(piperazin-1-yl)ethyl)phenyl)thieno[3,2-d]pyrimidin-4-ylamino)phenol] | > 80% | > 80% | 61% | > 80% | – | > 80% | 41% | – | 51% | > 80% | > 80% | 67% | 74%
4 | CCNCc1ccc(-c2cc3ncnc(Nc4cccc(O)c4)c3s2)o1 [LCB 03-0091, 3-(6-(5-((ethylamino)methyl)furan-2-yl)thieno[3,2-d]pyrimidin-4-ylamino)phenol] | > 70% | > 70% | 39% | > 70% | 68% | > 70% | 39% | 92% | 49% | > 70% | > 70% | – | –
5 | Oc1cccc(Nc2ncnc3cc(-c4ccc(CN5CCNCC5)s4)sc23)c1 [LCB 03-0094, 3-(6-(5-(piperazin-1-ylmethyl)thiophene-2-yl)thieno[3,2-d]pyrimidin-4-ylamino)phenol] | > 80% | > 60% | 41% | > 80% | 56% | > 60% | 29% | 77% | 49% | > 60% | > 60% | – | –
6 | Cl.Oc1cccc(Nc2ncnc3cc(-c4cccc(CN5CCCC5)c4)sc23)c1 [LCB 03-0062, 3-(6-(3-(pyrrolidin-1-ylmethyl)phenyl)thieno[3,2-d]pyrimidin-4-ylamino)phenol] | > 80% | > 80% | 64% | > 80% | – | > 80% | 41% | – | 57% | > 80% | > 80% | 82% | 93%
7 | Oc1cccc(Nc2ncnc3cc(-c4ccc(CN5CCCC5)s4)sc23)c1 [LCB 03-0085, 3-(6-(5-(pyrrolidin-1-ylmethyl)thiophene-2-yl)thieno[3,2-d]pyrimidin-4-ylamino)phenol] | > 80% | > 70% | 51% | > 80% | 74% | > 70% | 35% | 93% | 53% | > 70% | > 70% | – | –
